# Values joined by “and” are separate entries in the source; they are usually repeats but may differ in a detail not shown here. Identical values can stand only once.
# Assays:
# oris DNA of HSV-1 = assay: Nitrocellulose filter binding to HSV-1 oris DNA; details: input oris DNA 8,000/sample
# Experimental: This example illustrates HSV DNA binding at the site of replication (oris) initiation at ADPRT.
# The 230 bp XbaI-HindIII oris DNA of HSV-1 was isolated from plasmid pKC4 and radioactively labeled with [32P]dCTP by fill-in reaction with the Klenow form of E. coli DNA polymerase. Labeled DNA fragments were purified as previously described in J. Virol., 63:2773 (1989).
# Nitrocellulose filters (Schleicher and Schuell, BA 85, […] pore size, 27 mm diameter) were presoaked for 60 minutes in binding buffer (250 mM Tris-Cl, pH 8.0, 100 mM MgCl2, 1000 mM NaCl, 0.6 mM DTT, 0.1 mg/ml BSA, 0.1 mM PMSF and 0.1 mM TLCK). 5 ul of [32P] oris DNA was added to 210 ul of cold binding buffer and incubated for 1 minute. 2 ul of either ADPRT (200 ng) or HSV-1 infected Vero cell extract (Vero(F), 2 ug) was then added to the DNA solution and incubated for 10 minutes at 25° C. Samples were transferred to ice, followed by filtration through the nitrocellulose filters. The filters were then washed four times with cold wash buffer containing 25 mM Tris-Cl, pH 8.0, 10 mM MgCl2, 0.5 mM DTT, 100 mM NaCl, 5% DMSO. The filters were dried and the amount of radioactive material bound to the filters was determined by scintillation spectrophotometry.
# ADPRT [1] = details: Proc. Nat. Acad. Sci. (USA), 84:1107 (1987); cited from earlier work
# ADPRT [2] = assay: Binding to ADPRT; details: 6-nitroso oxidation product
# CMV = details: cited from earlier work
compound,measurement,setting,value
ADPRT,% Specific Bound,oris DNA of HSV-1,78.6% and ~80%
same,CPM Bound to Filter,oris DNA of HSV-1; average of duplicate samples,6384 CPM
"O=c1ccc2ccccc2o1 [1,2-benzopyrone]",inhibition of ADPRT,ADPRT [1],inhibitory ligand
"O=Nc1ccc2oc(=O)ccc2c1 [6-NBP, 6-nitroso-1,2-benzopyrone]",binding to zinc-fingers of ADPRT,ADPRT [2],binds specifically and with high affinity
Nc1nc2c(ncn2COCCO)c(=O)[nH]1 [acyclovir],CMV sensitivity,CMV,CMV is resistant to acyclovir

# Reference: US5583155A, “6-amino-1,2-benzopyrones useful for treatment of viral diseases” (Octamer, Inc., priority 1994, dated 1996)
